Data published in patent US20070249559A1, “Hydrating Composition” (priority 2004, published 2007).

What was measured:
[1] = Body mass and body water compartments (bioimpedance) before and after 7-day supplementation; format: in vivo, human; details: for Change in extracellular water (ECW) post- vs pre-supplementation / Change in intracellular water (ICW) post- vs pre-supplementation / Change in total body water (TBW) post- vs pre-supplementation: bioimpedance; for Change in extracellular water (ECW) post- vs pre-supplementation / Change in intracellular water (ICW) post- vs pre-supplementation / Change in total body water (TBW) post- vs pre-supplementation / Change in body mass (BM) post- vs pre-supplementation: supplementation week; for Change in body mass (BM) post- vs pre-supplementation: well-trained cyclists, final supplement 5 hours prior
Experimental: (§1) The experimental design and protocol are complicated and is best understood by reference to FIGS. 1 and 2. The study consisted of two supplementation regimens, each lasting 7 days and encompassing four cycle performance trials consisting of 40 min constant-load exercise at 63% WRmax followed by a 16.1 km (10 mile) time trial. Prior to the first of these experimental trials, familiarisation trials were completed until the variability of two consecutive trials was within 5%. Following this familiarisation period, subjects were matched for body mass (BM) and were randomised in a double blind fashion to either a Cr or a placebo (Pl) group. Subjects performed an exercise trial pre- and post-supplementation in both supplementation weeks. The first test was conducted at least 48 hours after each subject's final familiarisation trial. Each supplementation period started on the day after the first test and finished on the day of the second test.
(§2) Cr supplementation consisted of 22.8 g·d^−1 of Cr.H2O (equivalent to 10 g Cr×2 daily) and 140 g of glucose polymer (70 g×2 daily) made up in 2 L of warm to hot water for 6 days. […] Each supplementation was made freshly prior to consumption in order to prevent any degradation of Cr to creatinine (Crn). The Pl supplement consisted of 170 g·d^−1 of glucose polymer (85 g×2 daily). During the first and third week of the experimental regimen, subjects in both groups received either 1 g glycerol (Gly) per·kg BM or an equivalent amount of Pl (sucrose solution) diluted in each supplement. In both post-supplementation trials (days 8 and 22) subjects consumed the appropriate supplement 5 hours prior to exercise. […] All supplements had similar taste, texture and appearance and were placed in generic water bottles to ensure double blind administration. On each of the experimental test days (i.e. days 1, 8, 15, 22) subjects ingested 500 ml of water 3 hours prior to exercise and a further 500 ml of water 1 hour prior to exercise to ensure subjects were adequately hydrated prior to all exercise trials (American College of Sports Medicine, 2000).
(§3) Procedures. Subjects reported to the laboratory on the day of testing following a 3 hr fast and having refrained from alcohol, caffeine and strenuous exercise the day before. Upon arrival at the laboratory, height and nude BM were measured and body water compartments were estimated using a Bodystat Multiscan 5000 Bioimpedance analyser (Bodystat Ltd, Isle of Man) (Van Loan, 1990). This method allows TBW and ECW to be estimated; from these measurements ICW can also be deduced. The bioimpedance measurements were taken while the subjects lay comfortably in a supine position on a non-conductive surface with their arms and legs slightly abducted. Following the bioimpedance measurement, a flexible rectal thermistor was inserted 10 cm beyond the anal sphincter to measure rectal temperature (Tre), an index of core temperature (Tc) and a heart rate (HR) monitor (Polar Sports Tester, Polar Electro Oy, Kempele, Finland) was attached. The subject's right hand and forearm were immersed in water at 42-44° C. for 15 min in order to allow for arterialisation of the venous blood (Forster at al. 1972). Following this, a 21 G cannula was introduced into a superficial vein on the dorsal surface of the heated hand. The subject was transferred to the climatic chamber (ambient temperature 30±1° C. with a relative humidity of 70±2% and air velocity of approximately 1.8 m·sec^−1) and seated on the cycle ergometer for 5 min. During this period thermistors (C8600 10 channel microprocessor, Comark, Hertfordshire, UK) were attached to the subject's chest, tricep, thigh and calf for the determination of weighted mean skin temperature (Tskin) (Ramanthan, 1964). The subject remained seated on the cycle ergometer for a further 1 min while resting HR, Tre, Tskin were recorded and a blood sample (10 ml) obtained. The venous cannula was kept patent by a 10 ml infusion of isotonic saline between samples. […]

[2] = Cycle exercise in the heat: 40 min constant load at 63% WRmax followed by 16.1 km time trial; format: in vivo, human; details: for Core temperature (Tc, rectal) during exercise post- vs pre-supplementation / Heart rate (HR) during exercise post- vs pre-supplementation: 30 C, 70% relative humidity; for RPE for breathlessness post- vs pre-supplementation / RPE for perceived leg fatigue post- vs pre-supplementation: Borg category scale; for Change in plasma volume (delta PV) during exercise post- vs pre-supplementation: calculated from Hb and PCV
Experimental: as §1, §2, §3

[3] = Side effects of the supplementation protocol; format: in vivo, human; details: 18 subjects
From the text: as §2
Side effects. […] 3 subjects from each group correctly identified the subject group and 2 subjects correctly identified the Gly supplementation week, while, all other subjects were unsure of the treatment they received.

[4] = consumed with a substantial fluid intake; by reducing urinary volume; cited from earlier work
[5] = bioimpedance estimate after supplementation

Row | Structure (SMILES) | Increase in TBW (estimated, on average) [1, 5] [mL] | Part of TBW increase accounted for by increase in ECW [1, 5] [mL] | Change in extracellular water (ECW) post- vs pre-supplementation [1] | Change in intracellular water (ICW) post- vs pre-supplementation [1] | Change in total body water (TBW) post- vs pre-supplementation [1] | Change in body mass (BM) post- vs pre-supplementation [1] | Core temperature (Tc, rectal) during exercise post- vs pre-supplementation [2] | Heart rate (HR) during exercise post- vs pre-supplementation [2] | RPE for breathlessness post- vs pre-supplementation [2] | RPE for perceived leg fatigue post- vs pre-supplementation [2] | Change in plasma volume (delta PV) during exercise post- vs pre-supplementation [2] | Side effects reported [3] | Fluid expansion or retention above a fluid bolus alone [4] [mL] | Increase in plasma volume (PV) ([1]; assuming 7.5% of the increase in TBW is plasma) | Part of TBW increase accounted for by increase in ICW [1, 5] [mL] | 16.1 km time trial performance ([2]; post- vs pre-supplementation)
1 | OCC(O)CO [Gly, glycerol] | 600 | 400 | increased significantly | no significant increase | increased significantly | increased significantly | not significantly different | significantly lower | no such effect | no such effect | not significantly different | only one report of gastrointestinal distress | ~600 |  |  | 
2 | CN(CC(=O)O)C(=N)N [Cr, methyl guanidine acetic acid] | 680 |  | increased significantly | increased significantly | increased significantly | increased significantly | significantly lower | significantly lower | Lower | Significantly lower | lower |  |  | approximately 51 ml | 500 | no effect
